Data on 20 compounds can be found in ChEMBL document CHEMBL4007490, “New hydrazine and hydrazide quinoxaline 1,4-di-N-oxide derivatives: In silico ADMET, antiplasmodial and antileishmanial activity” (Bioorg Med Chem Lett, 2017).

Data set [1] concerns Plasmodium falciparum. Briefly: Antiplasmodial activity against chloroquine-sensitive/sulfadoxine-resistant Plasmodium falciparum 3D7 by [3H]-hypoxanthine incorporation assay. Format: functional.
The subject of data set [2] is Plasmodium falciparum. The data set can be described thus: Antiplasmodial activity against chloroquine/cycloguanil-resistant Plasmodium falciparum FCR3 by [3H]-hypoxanthine incorporation assay. Format: functional. The following applies: FCR-3/Gambia.
Data set [3] is described as follows: Selectivity index, ratio of CC50 for human HepG2A16 cells to IC50 for chloroquine/cycloguanil-resistant Plasmodium falciparum FCR3. Format: toxicity. To be noted: read-out: Ratio CC50/IC50.
Data set [4] concerns Leishmania infantum. Briefly: Antileishmanial activity against axenic amastigote form of Leishmania infantum MHOM/MA/67/ITMAP-263 assessed as parasite growth inhibition after 72 hrs by MTT assay. To be noted: MHOM/MA/67/ITMAP-263, 72 h. Type of data set: functional.
Data set [5] can be described thus: Selectivity index, ratio of CC50 for human HepG2A16 cells to IC50 for axenic amastigote form of Leishmania infantum MHOM/MA/67/ITMAP-263. Type of data set: toxicity. The following applies: read-out: Ratio CC50/IC50.
Data set [6] in a line: Cytotoxicity against human HepG2A16 cells after 48 hrs by MTT assay. Format: cell-based.

Turning to `Cc1c(/C=N/NC(=O)c2ccncc2)[n+]([O-])c2ccccc2[n+]1[O-]`, the IC50 in data set [1], in data set [2] and in data set [4] was above 100 µM each time. Moreover, the selectivity ratio in data set [3] and in data set [5] was below 0.9 in each case. Also, in data set [6], the 50% cytotoxic concentration (CC50) (commonly the concentration that lowers cell viability or growth by half) at 48 h stood at 90.9 µM.

Turning to `COc1ccc(C(=O)N/N=C/c2c(C)[n+]([O-])c3ccccc3[n+]2[O-])cc1`, the IC50 – broadly, the concentration that gives 50% inhibition – was 27.8 µM in data set [1], 30 µM in data set [2] and above 100 µM in data set [4]. The selectivity ratio is 2.22 in data set [3] and below 0.66 in data set [5]. The compound further came in with a 50% cytotoxic concentration (CC50) at 48 h in data set [6] of 66.6 µM.

For `Cc1c(/C=N/Nc2ccc(C(=O)O)cc2)[n+]([O-])c2ccccc2[n+]1[O-]`, the IC50 in data set [1], in data set [2] and in data set [4] was above 100 µM each time. For the same compound, the selectivity ratio in data set [3] and in data set [5] was below 3.72 in each case. In data set [6], this compound displayed a cytotoxic concentration (CC50) at 48 h of 373 µM.

As to `CC(=O)N/N=C/c1c(C)[n+]([O-])c2ccccc2[n+]1[O-]`, the IC50 in data set [1], in data set [2] and in data set [4] was above 100 µM each time. The selectivity ratio in data set [3] and in data set [5] was below 0.87 each time. The compound further showed a CC50 at 48 h in data set [6] of 87.2 µM.

For `Cc1c(C)[n+]([O-])c2cc(Cl)ccc2[n+]1[O-]`, the IC50 in data set [1], in data set [2] and in data set [4] was above 100 µM each time. For the same compound, the selectivity ratio in data set [3] and in data set [5] was below 2.28 throughout. The compound further came in with a CC50 at 48 h in data set [6] of 228 µM.

Turning to `Cc1c(/C=N/NC(=O)c2ccccc2)[n+]([O-])c2ccccc2[n+]1[O-]`, the values for the 50% inhibitory concentration (IC50) in data set [1], in data set [2] and in data set [4] were 55.7 µM, 36.5 µM and 59.1 µM, respectively. Moreover, the selectivity ratio worked out at 1.11 in data set [3] and 0.68 in data set [5]. In data set [6], the 50% cytotoxic concentration (CC50) at 48 h was determined as 40.7 µM.

As to `Cc1c(C(F)(F)F)[n+]([O-])c2ccccc2[n+]1[O-]`, the half-maximal inhibitory concentration (IC50) in data set [1] came to 7.9 µM; in data set [2], 4.2 µM; in data set [4], 30.5 µM. Moreover, the values for the selectivity ratio in data set [3] and in data set [5] were 0.42 and 0.05, respectively. The compound also returned a half-maximal cytotoxic concentration (CC50) at 48 h in data set [6] of 1.8 µM.

For the compound `COc1ccc2c(c1)[n+]([O-])c(/C=N/Nc1c(Cl)cc(Cl)cc1Cl)c(C)[n+]2[O-]`, the half-inhibitory concentration (IC50) in data set [1], in data set [2] and in data set [4] was above 100 µM each time. The selectivity ratio is below 2.09 in data set [3] and below 2.08 in data set [5]. The compound further registered a cytotoxic concentration (CC50) at 48 h in data set [6] of 209 µM.

Consider `Cc1c(/C=N/Nc2cccc(Cl)c2)[n+]([O-])c2ccccc2[n+]1[O-]`, for which the 50% inhibitory concentration (IC50) in data set [1], in data set [2] and in data set [4] was above 100 µM throughout. Besides, the selectivity ratio in data set [3] and in data set [5] was below 0.47 throughout. In addition, in data set [6], the midpoint of cytotoxicity, the CC50 at 48 h, lay at 47.3 µM.

For the compound `Cc1c(/C=N/Nc2ccnc3cc(Cl)ccc23)[n+]([O-])c2cc(Cl)ccc2[n+]1[O-]`, the results for the concentration for half-maximal inhibition (IC50) in data set [1], in data set [2] and in data set [4] were 0.24 µM, 2.8 µM and above 100 µM, respectively. Besides, in data set [3], the selectivity ratio was above 86.1. Moreover, the CC50 at 48 h in data set [6] was above 241 µM.

Take `Cc1c(/C=N/NC(=O)c2ccc(Cl)cc2)[n+]([O-])c2ccccc2[n+]1[O-]`: the concentration for half-maximal inhibition (IC50) in data set [1] worked out at 54.9 µM; in data set [2] it was 34.8 µM; in data set [4], 52.3 µM. The selectivity ratio turned out to be 0.81 in data set [3] and 0.54 in data set [5]. In data set [6], this compound showed a CC50 at 48 h of 28.3 µM.

As to `COc1ccc2c(c1)[n+]([O-])c(C)c(C)[n+]2[O-]`, the IC50 in data set [1], in data set [2] and in data set [4] was above 100 µM in each case. The selectivity ratio in data set [3] and in data set [5] was below 7.44 in each case. In addition, the CC50 at 48 h in data set [6] turned out to be 744 µM.

Consider `Cc1c(/C=N/Nc2c(Cl)cc(Cl)cc2Cl)[n+]([O-])c2ccccc2[n+]1[O-]`, for which the half-maximal inhibitory concentration (IC50) in data set [1], in data set [2] and in data set [4] was above 100 µM in each case. Besides, the selectivity ratio in data set [3] and in data set [5] was below 1.24 each time. The same compound yielded a CC50 at 48 h in data set [6] of 124 µM.

Regarding `Cc1c(/C=N/Nc2ccccc2)[n+]([O-])c2ccccc2[n+]1[O-]`, the 50% inhibitory concentration (IC50) in data set [1], in data set [2] and in data set [4] was above 100 µM each time. For the same compound, the selectivity ratio in data set [3] and in data set [5] was below 0.35 each time. The compound further returned a CC50 at 48 h in data set [6] of 35.4 µM.

As for `Cc1ccc(S(=O)(=O)N/N=C/c2c(C)[n+]([O-])c3ccccc3[n+]2[O-])cc1`, the IC50 in data set [1] was 85.3 µM; in data set [2], above 100 µM; in data set [4], 53.4 µM. For the same compound, the selectivity ratio is below 2.41 in data set [3] and 4.51 in data set [5]. This compound registered a cytotoxic concentration (CC50) at 48 h in data set [6] of 241 µM.

As to `Cc1c(/C=N/Nc2ccc(Cl)c(Cl)c2)[n+]([O-])c2ccccc2[n+]1[O-]`, the 50% inhibitory concentration (IC50) in data set [1] is 76.7 µM; in data set [2] it was 87.1 µM; in data set [4], above 100 µM. Besides, the selectivity ratio in data set [3] was 6.32; in data set [5], below 5.5. The compound also gave a half-maximal cytotoxic concentration (CC50) at 48 h in data set [6] of 551 µM.

In the case of `COc1ccc2c(c1)[n+]([O-])c(/C=N/Nc1ccnc3cc(Cl)ccc13)c(C)[n+]2[O-]`, the half-inhibitory concentration (IC50) was 1.4 µM in data set [1], 2.56 µM in data set [2] and above 100 µM in data set [4]. In data set [3], the selectivity ratio was above 95.3. Also, the CC50 at 48 h in data set [6] is above 244 µM.

Turning to `Cc1c(/C=N/Nc2c(Cl)cc(Cl)cc2Cl)[n+]([O-])c2cc(Cl)ccc2[n+]1[O-]`, the results for the IC50 in data set [1], in data set [2] and in data set [4] were above 100 µM, 61.1 µM and above 100 µM, respectively. The figures for the selectivity ratio in data set [3] and in data set [5] were 0.2 and below 0.12, respectively. In addition, the midpoint of cytotoxicity in data set [6], the CC50 at 48 h, lay at 12.2 µM.

For the compound `Cc1c(C)[n+]([O-])c2ccccc2[n+]1[O-]`, the IC50 in data set [1], in data set [2] and in data set [4] was above 100 µM throughout. For the same compound, the selectivity ratio in data set [3] and in data set [5] was below 3.21 each time. For the same compound, half-maximal cytotoxicity in data set [6] (CC50 at 48 h) was put at 322 µM.

Consider `C[C@@H]1[C@H](O)[C@@H](C)/C=C/C=C/C=C/C=C/C=C/C=C/C=C/[C@H](O[C@@H]2O[C@H](C)[C@@H](O)[C@H](N)[C@@H]2O)C[C@@H]2O[C@](O)(C[C@@H](O)C[C@@H](O)[C@H](O)CC[C@@H](O)C[C@@H](O)CC(=O)O[C@H]1C)C[C@H](O)[C@H]2C(=O)O` [AMPHOTERICIN B], for which the half-maximal inhibitory concentration (IC50) in data set [4] worked out at 0.05 µM.
